Experimental data taken from patent US10571387B2, “Apparatus and method for determining the mechanical properties of cells” (Zellmechanik Dresden GmbH, priority 2013, dated 2020).

System: HL60 cells
Assay: Real-time deformability measurement (circularity) of cells in shear flow through a microfluidic channel
Assay type: cell-based
Source text: In order to compare the deformation of cells, it is useful to introduce a single parameter to quantify the degree of deformation for each single cell. This can be done in numerous ways. • The circularity of a closed contour is defined by
[formula] where A is the area enclosed by the contour and l is the perimeter.
The circularity relates the ratio of area and perimeter to that of an ideal circle. For an ideal circle c=1. All other shapes result in values smaller than 1. […] For initially spherical cells such as the HL60 cell line the circularity is a very sensitive measure for the induced deformation. However for cells initially having other shapes the circularity may not be the ideal choice, since completely different shapes can lead to the same circularity.
The following experimental protocol is used for all measurements described in this section. For comparability all studies on HL60 cells presented in this application are carried out during the log phase of cell growth (36 h after splitting). Cells are centrifuged for 5 minutes at 800 rpm (which leads to an outward acceleration of about 100 g) using an Eppendorf 5804 R centrifuge (Eppendorf, Hamburg, Germany). […] The viscosity of the medium was measured with a falling sphere viscometer (HAAKE Kugelfallviskosimeter Typ C, Thermo Electron GmbH, Karlsruhe, Germany). […]

## C=C1[C@@H](C)[C@H]2[C@H](Cc3ccccc3)NC(=O)[C@]23[C@H](OC(C)=O)/C=C/[C@@](C)(O)C(=O)[C@@H](C)C/C=C/[C@H]3[C@@H]1O [cytochalasin D]
HL60 cells treated with cytochalasin D (2 mM added to a final concentration of 5 μL/ml, 10 minutes at 37° C.), flow rate 0.04 μl/s, 20×20 μm^2 channel section, real time measurement, FIG. 10A
  circularity (peak of the histogram of circularities): 0.929±0.04
HL60 cells treated with cytochalasin D, flow rate of 0.04 μl/s
  deformation compared to untreated cells: deform more
